This is an account of results in patent publication US20200197409A1, “HEPATITIS B VIRUS SURFACE ANTIGEN INHIBITOR” (FUJIAN COSUNTER PHARMACEUTICAL CO., LTD., priority 2017, published 2020).

Data set [1] can be described thus: Single-dose pharmacokinetic study on rat. The format is in vivo, SD rats.
The nature of data set [2]: Plasma protein binding rate, human plasma. The format is in vitro ADME. The note with it: plasma of human, dialysis 4 hours at 37° C. On the procedure: (§1) The protein binding rate of Embodiment 6 in the plasma of human, CD-1 mouse and SD rat was determined, 796 μL of blank plasma was taken from human, CD-1 mice and SD rats, and 4 μL of test compound working solution (400 μM) or warfarin working solution (400 μM) was added to achieve a final concentration of the test compound and the warfarin in plasma samples of 2 μM. The samples were mixed thoroughly. The final concentration of organic phase DMSO was 0.5%, 50 μL of the test compound and warfarin plasma sample were transferred into sample receiving plates (three parallels), and a relative volume of corresponding blank plasma or buffer was immediately added, ensuring that the final volume of each sample well was 100 μL, and the volume ratio of plasma to dialysis buffer was 1:1. 400 μL of stop solution was added to these samples, which was used as a T0 sample for the determination of recovery and stability. […] The protein binding rate and the recovery rate were calculated by the formulas: % Protein unbinding rate (%)=100*Drug concentration through the dialysis membrane/drug concentration not through the dialysate: Protein binding rate (%)=100-% protein unbinding rate: % Recovery=100*(Drug concentration through the dialysis membrane+Drug concentration not through the dialysate)/Total drug concentration before undialysis. Protein binding rate and recovery rate were calculated.

A further data set has as its system HBsAg. The note with it: read-out: HBsAg EC50; HepG2.2.15 cells, supernatant on the 8th day. As to the method: The HBV DNA content in HepG2.2.15 cells culture supernatant was determined by real-time quantitative qPCR assay (real time-qPCR), and the HBV surface antigen content was determined by enzyme linked immunosorbent assay (ELISA). The inhibitory effect of the compound on HBV was evaluated by the EC50 value of the compound.
2.1 Cell Line: HepG2.2.15 Cells
3.1 HepG2.2.15 cells (4×10^4 cells/well) were seeded into a 96-well plate and incubated overnight at 37° C. under 5% CO2.
3.2 On the 2nd day, the compound was diluted into 8 concentrations with 3-fold gradient. The compounds with different concentrations were added into the culture wells in duplicate wells. The final concentration of DMSO in the culture medium was 0.5%, 10 μM ETV was used as a 100%/inhibition control, and 0.5% DMSO was used as a 0% inhibition control.
3.3 On the 5th day, the culture medium was replaced with a fresh medium containing the compound.
3.4 On the 8th day, the culture medium in the culture well was collected, and a part of the sample was taken for ELISA to determine the content of hepatitis B virus S antigen, a part of the sample was taken to extract DNA with a high-throughput DNA purification kit (Qiagen-51162).
3.8 Determination of hepatitis B virus S antigen content by ELISA
50 μL of sample and standard sample were taken and added into a reaction plate respectively, followed by addition of 50 μL of enzyme conjugate into each well, the mixture was shaken and well-mixed, and placed in a bath at 37° C. for 60 minutes. The plate was then washed with washing solution 5 times, followed by addition of 50 μL of illuminating substrate into each well, the mixture was well-mixed and allowed to react at room temperature for 10 minutes in the dark. Chemiluminescence intensity was determined by a ELISA.
Calculation of the percentage of inhibition:% Inh.=(1−value of sample/value of DMSO control)×100
Calculation of EC50: The 50% inhibitory concentration (EC50) value of the compound on HBV was calculated by GraphPad Prism software.

A short description of data set [3]: Single-dose pharmacokinetic study on mouse. In kind it is in vivo, C57BL/6 mice.
Data set [4] can be described thus: Microsomal metabolism stability, human. The note with it: human liver microsomes 0.5 mg/mL, 1 μM, NADPH, 37° C. The format is in vitro ADME. On the procedure: The microsomal metabolism stability of the test compound (Embodiment 6) in three species was determined. 1 μM test compound and microsomes (0.5 mg/mL) supplemented with NADPH regeneration system were incubated at 37° C. The positive controls were testosterone (3A4 substrate), propafenone (2D6 substrate) and diclofenac (2C9 substrate), respectively. The positive control and microsomes (0.5 mg/mL) supplemented with NADPH regeneration system were incubated at 37° C. Samples at different time points (0, 5, 10, 20, 30, and 60 minutes) were mixed directly with cold acetonitrile containing an internal standard to terminate the reaction. The compound and microsomes were incubated for 60 minutes without the NADPH regeneration system. One parallel was set at each time point (n=1). The samples were analyzed by LC/MS/MS. The concentration of the compound was indicated by the ratio of the peak area of the analyte to the peak area of the internal standard.
On the technique in general: Microsomes from liver hold many membrane-bound enzymes, among them those of drug oxidation.

A short description of data set [5]: Plasma protein binding rate, CD-1 mouse plasma. In kind it is in vitro ADME. The note with it: plasma of CD-1 mouse, dialysis 4 hours at 37° C. On the procedure: as §1
Data set [6] is described as follows: Single dose neurotoxicity test on rats (functional observation combination test, FOB). In kind it is in vivo. The note with it: 24 hours after single intragastric dose of 1000 mg/kg and 300 mg/kg, male SD rats. On the procedure:
In this experiment, SD rats were intragastrically administrated with RG7834 and Embodiment 6 in a single dose, and the potential neurobehavioral toxicities to SD rats were evaluated by functional observation combination test (FOB). A total of 25 SD male rats were used in this experiment. At the start of the administration, the animals were about 7 to 8 weeks old, males weighed between 225.50 and 285.70 g, and […]. […] The animals in the control group were administered with the menstruum. All animals were administered at a volume of 10 mL/kg, and subjected to the FOB test.

What is called half-life is the time needed for the level to fall by half in the phase considered. Low readings indicate fast loss, high ones slow loss. As a reminder, the fraction unbound is the share of the substance not bound to proteins or other matrix. What is called EC50 is the midpoint of the concentration-response curve. `COCCCOc1cc2c(cc1OC)-c1cc(=O)c(C(=O)O)cn1[C@H](C(C)(C)C)CO2` [Embodiment 6]: the Apparent distribution volume in data set [1] (IV: 1 mg/kg PO: 2 mg/kg) is 1.72 L/kg; in data set [3] (IV: 1 mg/kg PO: 2 mg/kg), 5.79 L/kg. The results for the Bioavailability in data set [1] (IV: 1 mg/kg PO: 2 mg/kg) and in data set [3] (IV: 1 mg/kg PO: 2 mg/kg) were 71.1% and 91.6%, respectively. Besides, the values for the Highest concentration in data set [1] (IV: 1 mg/kg PO: 2 mg/kg) and in data set [3] (IV: 1 mg/kg PO: 2 mg/kg) were 659 nM and 1055 nM, respectively. Also, the half-life in data set [1] (male, SD, plasma, IV: 1 mg/kg PO: 2 mg/kg) is 1.98 h; in data set [3] (male, C57BL/6, plasma, IV: 1 mg/kg PO: 2 mg/kg), 2.46 h. Moreover, the clearance in data set [1] (male, SD, plasma, IV: 1 mg/kg PO: 2 mg/kg, read-out: Clearance rate) is 28.1 mL/min/kg; in data set [3] (male, C57BL/6, plasma, IV: 1 mg/kg PO: 2 mg/kg, read-out: Clearance rate), 75 mL/min/kg. Further, the AUC(0-t) was found to be 1.36 µM·h in data set [1] (male, SD, plasma, IV: 1 mg/kg, read-out: AUC0-last (Intravenous injection)); 1.83 µM·h in data set [1] (male, SD, plasma, PO: 2 mg/kg, read-out: AUC0-last (Oral)); 0.502 µM·h in data set [3] (male, C57BL/6, plasma, IV: 1 mg/kg, read-out: AUC0-last (Intravenous injection)); 0.876 µM·h in data set [3] (male, C57BL/6, plasma, PO: 2 mg/kg, read-out: AUC0-last (Oral)). The fraction unbound at 4 h, 2 μM in data set [2] is 0.443; in data set [5] it was 0.498. Besides, the EC50 with HBsAg turned out to be 3.88 nM. Further, in data set [4], the “remaining ratio at T=60 min” value was 109.1%. In addition, the “magnification of the pupil associated with the test compound” value in data set [6] was “did not appear”.
